Data taken from patent US20230242553A1, “PROCESS FOR THE PREPARATION OF 1-METHYL-6-[6-R2-5-METHYL-8-(METHYLAMINO)-4-[ (3AS,6AS)-5-METHYL-2,3,3A,4,6,6A-HEXAHYDROPYRROLO[2,3-C]PYRROL-1-YL]-9H-PYRIDO[2,3-B]INDOL-3-YL]-4-OXO-1,8-NAPHTHYRIDINE-3-CARBOXYLIC ACID HYDROCHLORIDE” (Hoffmann-La Roche Inc., priority 2020, published 2023).
Counter-ions that a name gives are not always drawn.

Assay: Stability experiment of final compound: solid in sealed vial kept in oven, purity checked by UPLC
Type: physicochemical
Conditions: for Stability Result Solid at 20° C./7day (purity) / Stability Result Solid at 100° C./1 day (purity): 10 mg solid in 4 mL vial with sealed cap; for Stability Result Solid at 20° C./7day (purity): 7 days; for Stability Result Solid at 20° C./7day (purity) / Stability Result Solid at 100° C./1 day (purity) / Initial Purity: purity by UPLC; for Stability Result Solid at 100° C./1 day (purity): oven 100° C.; for Initial Purity: solid before storage; for Stability of HCl salt compared with freebase form: conclusion in words from Table 2
Excerpt: Stability Experiment of Final Compound of Formula (I)
Freebase of Example 4: 6-[5-cyano-6-fluoro-8-(methylamino)-4-[(3aS,6aS)-5-methyl-2,3,3a,4,6,6a-hexahydropyrrolo[2,3-c]pyrrol-1-yl]-9H-pyrido[2,3-b]indol-3-yl]-1-methyl-4-oxo-1,8-naphthyridine-3-carboxylic acid; initial purity: 99.16%
HCl salt compound (Example 4): 6-[5-cyano-6-fluoro-8-(methylamino)-4-[(3aS,6aS)-5-methyl-2,3,3a,4,6,6a-hexahydropyrrolo[2,3-c]pyrrol-1-yl]-9H-pyrido[2,3-b]indol-3-yl]-1-methyl-4-oxo-1,8-naphthyridine-3-carboxylic acid; hydrochloride; initial purity: 98.50%
Freebase of Example 8: 6-[5,6-difluoro-8-(methylamino)-4-[(3aS,6aS)-5-methyl-2,3,3a,4,6,6a-hexahydropyrrolo[2,3-c]pyrrol-1-yl]-9H-pyrido[2,3-b]indol-3-yl]-1-methyl-4-oxo-1,8-naphthyridine-3-carboxylic acid; initial purity: 97.96%
HCl salt compound (Example 8): 6-[5,6-difluoro-8-(methylamino)-4-[(3aS,6aS)-5-methyl-2,3,3a,4,6,6a-hexahydropyrrolo[2,3-c]pyrrol-1-yl]-9H-pyrido[2,3-b]indol-3-yl]-1-methyl-4-oxo-1,8-naphthyridine-3-carboxylic acid; hydrochloride; initial purity: 97.80%
Condition: 10 mg of compound in 4 mL vial with sealed cap. Keep in oven at certain temperature for certain days. Then, the purity of solid was checked by UPLC.

SMILES	Stability Result Solid at 20° C./7day (purity)	Stability Result Solid at 100° C./1 day (purity)	Initial Purity	Stability Result Solid at 20° C./7day (purity) (dihydrochloride)	Stability Result Solid at 100° C./1 day (purity) (dihydrochloride)	Stability of HCl salt compared with freebase form
CNc1cc(F)c(C#N)c2c1[nH]c1ncc(-c3cnc4c(c3)c(=O)c(C(=O)O)cn4C)c(N3CC[C@H]4CN(C)C[C@H]43)c12 [Freebase of Example 4, 6-[5-cyano-6-fluoro-8-(methylamino)-4-[(3aS,6aS)-5-methyl-2,3,3a,4,6,6a-hexahydropyrrolo[2,3-c]pyrrol-1-yl]-9H-pyrido[2,3-b]indol-3-yl]-1-methyl-4-oxo-1,8-naphthyridine-3-carboxylic acid]	95.73%	93.35%	99.16%	–	–	–
CNc1cc(F)c(F)c2c1[nH]c1ncc(-c3cnc4c(c3)c(=O)c(C(=O)O)cn4C)c(N3CC[C@H]4CN(C)C[C@H]43)c12 [Freebase of Example 8, 6-[5,6-difluoro-8-(methylamino)-4-[(3aS,6aS)-5-methyl-2,3,3a,4,6,6a-hexahydropyrrolo[2,3-c]pyrrol-1-yl]-9H-pyrido[2,3-b]indol-3-yl]-1-methyl-4-oxo-1,8-naphthyridine-3-carboxylic acid]	96.72%	91.08%	97.96%	–	–	–
CNc1cc(F)c(C#N)c2c1[nH]c1ncc(-c3cnc4c(c3)c(=O)c(C(=O)O)cn4C)c(N3CC[C@H]4CN(C)C[C@H]43)c12 [HCl salt compound (Example 4), 6-[5-Cyano-6-fluoro-8-(methylamino)-4-[(3aS,6aS)-5-methyl-2,3,3a,4,6,6a-hexahydropyrrolo[2,3-c]pyrrol-1-yl]-9H-pyrido[2,3-b]indol-3-yl]-1-methyl-4-oxo-1,8-naphthyridine-3-carboxylic acid; dihydrochloride]	–	–	98.50%	98.67%	98.48%	much more stable than its freebase form
CNc1cc(F)c(F)c2c1[nH]c1ncc(-c3cnc4c(c3)c(=O)c(C(=O)O)cn4C)c(N3CC[C@H]4CN(C)C[C@H]43)c12 [HCl salt compound (Example 8), 6-[5,6-Difluoro-8-(methylamino)-4-[(3aS,6aS)-5-methyl-2,3,3a,4,6,6a-hexahydropyrrolo[2,3-c]pyrrol-1-yl]-9H-pyrido[2,3-b]indol-3-yl]-1-methyl-4-oxo-1,8-naphthyridine-3-carboxylic acid; dihydrochloride]	–	–	97.80%	97.78%	97.77%	much more stable than its freebase form
